Measured values taken from US20230257396A1, “MACROCYCLES AND THEIR USE” (BLOSSOMHILL THERAPEUTICS, INC., priority 2020, published 2023).

Tests used:
Assay in all cases: KINOMEscan kinase binding assay (Eurofins/DiscoveRx), % Ctrl
Conditions in all cases: 1 μM
kinases [1] = biological target: T1, kinases (Homo sapiens, UniProt P00519, Q252H)
T1 construct: purchased Eurofins/DiscoveRx; host or cells: E. coli BL21-derived host (T7 phage display) for most kinases; HEK-293 for the rest
Outline: (§1)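 Competition binding, 1 h RT: phage-tagged or HEK-293-expressed DNA-tagged kinase + immobilized ligand + compound. Eluate kinase by qPCR. % Ctrl = (test − positive ctrl)/(negative ctrl − positive ctrl) × 100; lower means stronger binding.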

kinases [2] = biological target: T2, kinases (Homo sapiens, UniProt P00519, T315I)
T2 construct: purchased Eurofins/DiscoveRx; host or cells: E. coli BL21-derived host (T7 phage display) for most kinases; HEK-293 for the rest
Outline: as §1

kinases [3] = biological target: T3, kinases (Homo sapiens, UniProt P00533, G719C)
T3 construct: purchased Eurofins/DiscoveRx; host or cells: E. coli BL21-derived host (T7 phage display) for most kinases; HEK-293 for the rest
Outline: as §1

kinases [4] = biological target: T4, kinases (Homo sapiens, UniProt P10721)
T4 construct: purchased Eurofins/DiscoveRx; host or cells: E. coli BL21-derived host (T7 phage display) for most kinases; HEK-293 for the rest
Outline: as §1

kinases [5] = biological target: T5, kinases (Homo sapiens, UniProt P10721, T670I/V559D)
T5 construct: purchased Eurofins/DiscoveRx; host or cells: E. coli BL21-derived host (T7 phage display) for most kinases; HEK-293 for the rest
Outline: as §1

kinases [6] = biological target: T6, kinases (Homo sapiens, UniProt P36888, N841I)
T6 construct: purchased Eurofins/DiscoveRx; host or cells: E. coli BL21-derived host (T7 phage display) for most kinases; HEK-293 for the rest
T6 sequence (P36888 27-993 N841I): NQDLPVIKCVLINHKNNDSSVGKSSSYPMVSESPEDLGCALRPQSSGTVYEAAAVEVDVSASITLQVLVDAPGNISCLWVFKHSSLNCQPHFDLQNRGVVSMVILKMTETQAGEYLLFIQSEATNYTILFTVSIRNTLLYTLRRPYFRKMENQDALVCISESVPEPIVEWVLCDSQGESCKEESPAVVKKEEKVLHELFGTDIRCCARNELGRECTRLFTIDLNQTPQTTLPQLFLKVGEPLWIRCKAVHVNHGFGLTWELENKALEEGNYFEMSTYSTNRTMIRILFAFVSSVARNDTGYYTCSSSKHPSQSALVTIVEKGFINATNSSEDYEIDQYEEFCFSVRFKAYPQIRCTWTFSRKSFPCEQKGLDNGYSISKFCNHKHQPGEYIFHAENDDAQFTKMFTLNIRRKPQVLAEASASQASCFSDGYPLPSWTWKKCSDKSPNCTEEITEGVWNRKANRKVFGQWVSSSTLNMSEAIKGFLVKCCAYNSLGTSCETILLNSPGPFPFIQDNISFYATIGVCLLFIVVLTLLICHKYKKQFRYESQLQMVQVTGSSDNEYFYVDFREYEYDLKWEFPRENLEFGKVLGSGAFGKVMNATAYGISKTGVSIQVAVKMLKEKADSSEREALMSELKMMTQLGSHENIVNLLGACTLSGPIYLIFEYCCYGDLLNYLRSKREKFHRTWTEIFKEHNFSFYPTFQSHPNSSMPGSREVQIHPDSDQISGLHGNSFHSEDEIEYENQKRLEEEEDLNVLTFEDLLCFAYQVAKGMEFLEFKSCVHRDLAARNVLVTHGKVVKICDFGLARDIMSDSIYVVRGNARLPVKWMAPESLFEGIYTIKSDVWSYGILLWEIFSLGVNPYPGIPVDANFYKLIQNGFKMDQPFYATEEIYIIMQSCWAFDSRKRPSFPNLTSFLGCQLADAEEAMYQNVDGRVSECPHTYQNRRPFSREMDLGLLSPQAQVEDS
Outline: as §1

kinases [7] = tested on: kinases
Outline: as §1

[8] = target ABL1(Q252H)-nonphosphorylated
[9] = target ABL1(Q252H)-phosphorylated
[10] = target ABL1(T315I)-nonphosphorylated
[11] = target ABL1(T315I)-phosphorylated
[12] = target EGFR(L747-E749del, A750P)
[13] = target EGFR(L747-S752del, P753S)
[14] = target EGFR(L747-T751del, Sins)

T5 sequence (P10721 26-976 V559D/T670I): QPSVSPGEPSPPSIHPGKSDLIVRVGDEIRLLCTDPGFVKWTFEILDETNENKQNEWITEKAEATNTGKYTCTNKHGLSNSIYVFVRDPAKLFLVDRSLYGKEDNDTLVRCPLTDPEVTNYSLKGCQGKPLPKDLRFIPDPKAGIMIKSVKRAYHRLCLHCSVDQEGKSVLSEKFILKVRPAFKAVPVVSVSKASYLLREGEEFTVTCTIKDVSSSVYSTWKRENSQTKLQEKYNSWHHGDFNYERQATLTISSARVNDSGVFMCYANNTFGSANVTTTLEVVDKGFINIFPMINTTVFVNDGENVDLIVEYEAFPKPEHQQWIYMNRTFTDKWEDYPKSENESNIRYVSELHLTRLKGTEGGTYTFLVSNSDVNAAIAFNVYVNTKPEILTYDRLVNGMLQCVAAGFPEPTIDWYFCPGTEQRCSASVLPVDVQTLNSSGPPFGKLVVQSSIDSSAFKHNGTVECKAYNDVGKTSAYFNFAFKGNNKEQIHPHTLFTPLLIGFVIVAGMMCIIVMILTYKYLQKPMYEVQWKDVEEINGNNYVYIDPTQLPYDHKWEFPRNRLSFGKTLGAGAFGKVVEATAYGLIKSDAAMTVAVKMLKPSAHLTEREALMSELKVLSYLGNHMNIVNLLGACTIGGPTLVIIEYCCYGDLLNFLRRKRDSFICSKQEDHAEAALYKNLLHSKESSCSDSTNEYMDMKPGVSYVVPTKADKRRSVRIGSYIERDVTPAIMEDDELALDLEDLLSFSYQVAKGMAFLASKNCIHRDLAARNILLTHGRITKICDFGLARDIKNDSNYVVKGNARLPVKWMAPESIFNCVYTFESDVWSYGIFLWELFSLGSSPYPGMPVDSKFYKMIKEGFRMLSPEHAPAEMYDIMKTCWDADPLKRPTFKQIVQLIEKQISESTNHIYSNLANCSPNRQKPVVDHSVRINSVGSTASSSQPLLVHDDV
T4 sequence (P10721 26-976): as the sequence (P10721 26-976 V559D/T670I) above, with D534V, I645T counted along it

Row | % Ctrl, ABL1(Q252H)-nonphosphorylated (kinases [1]; [8]) [% Ctrl] | % Ctrl, ABL1(Q252H)-phosphorylated (kinases [1]; [9]) [% Ctrl] | % Ctrl, ABL1(T315I)-nonphosphorylated (kinases [2]; [10]) [% Ctrl] | % Ctrl, ABL1(T315I)-phosphorylated (kinases [2]; [11]) [% Ctrl] | % Ctrl, EGFR(G719C) (kinases [3]; target EGFR(G719C)) [% Ctrl] | % Ctrl, KIT (kinases [4]; target KIT) [% Ctrl] | % Ctrl, KIT-autoinhibited (kinases [4]; target KIT-autoinhibited) [% Ctrl] | % Ctrl, KIT(V559D, T670I) (kinases [5]; target KIT(V559D, T670I)) [% Ctrl] | % Ctrl, FLT3(N841I) (kinases [6]; target FLT3(N841I)) [% Ctrl] | % Ctrl, EGFR(L747-E749del, A750P) (kinases [7]; [12]) [% Ctrl] | % Ctrl, EGFR(L747-S752del, P753S) (kinases [7]; [13]) [% Ctrl] | % Ctrl, EGFR(L747-T751del, Sins) (kinases [7]; [14]) [% Ctrl] | % Ctrl, FLT3(ITD) (kinases [7]; target FLT3(ITD)) [% Ctrl] | % Ctrl, FLT3(ITD, D835V) (kinases [7]; target FLT3(ITD, D835V)) [% Ctrl] | % Ctrl, FLT3(ITD, F691L) (kinases [7]; target FLT3(ITD, F691L)) [% Ctrl] | Compound | also measured
1 | – | – | – | – | – | – | – | – | – | – | – | – | – | – | – | Cc1cc2c([nH]1)/C=C1\C(=O)Nc3ccc(cc31)-c1ccnn1CCOCCN(C)C2=O [Ex. 41, [19a(20)Z]-2,5-dimethyl-6,7,9,10-tetrahydro-1H-15,17-(ethanediylidene)pyrazolo[1,5-d]dipyrrolo[3,4-h:2′,3′-k][1,4,14]oxadiazacyclohexadecine-4,19(5H,18H)-dione] | % Ctrl, ABL1(Q252H)-nonphosphorylated (kinases [1]; ABL1(Q252H)-nonphosphorylated): 9 % Ctrl; % Ctrl, ABL1(Q252H)-phosphorylated (kinases [1]; ABL1(Q252H)-phosphorylated): 63 % Ctrl; % Ctrl, ABL1(T315I)-nonphosphorylated (kinases [2]; ABL1(T315I)-nonphosphorylated): 16 % Ctrl; % Ctrl, ABL1(T315I)-phosphorylated (kinases [2]; ABL1(T315I)-phosphorylated): 19 % Ctrl; % Ctrl, EGFR(G719C) (kinases [3]; EGFR(G719C)): 88 % Ctrl; % Ctrl, KIT (kinases [4]; KIT): 58 % Ctrl; % Ctrl, KIT-autoinhibited (kinases [4]; KIT-autoinhibited): 78 % Ctrl; % Ctrl, KIT(V559D, T670I) (kinases [5]; KIT(V559D, T670I)): 30 % Ctrl; % Ctrl, FLT3(N841I) (kinases [6]; FLT3(N841I)): 0 % Ctrl; % Ctrl, EGFR(L747-E749del, A750P) (kinases [7]; EGFR(L747-E749del, A750P)): 87 % Ctrl; % Ctrl, EGFR(L747-S752del, P753S) (kinases [7]; EGFR(L747-S752del, P753S)): 78 % Ctrl; % Ctrl, EGFR(L747-T751del, Sins) (kinases [7]; EGFR(L747-T751del, Sins)): 77 % Ctrl; % Ctrl, FLT3(ITD) (kinases [7]; FLT3(ITD)): 13 % Ctrl; % Ctrl, FLT3(ITD, D835V) (kinases [7]; FLT3(ITD, D835V)): 0.8 % Ctrl; % Ctrl, FLT3(ITD, F691L) (kinases [7]; FLT3(ITD, F691L)): 0.35 % Ctrl
2 | 0 | 0.3 | 0.3 | 0.1 | 100 | 7.5 | 25 | 1.6 | 0 | 44 | 56 | 30 | 0.9 | 0.4 | 0.1 | Cc1cc2c([nH]1)/C=C1\C(=O)Nc3cc(Cl)c(cc31)SCCOCCN(C)C2=O [Ex. 169, [16a(17)Z]-19-chloro-5-methyl-6,7,9,10-tetrahydro-1H-12,14-(ethanediylidene)dipyrrolo[3,4-g:2′,3′-j][1,4,13]oxathiazacyclopentadecine-4,16(5H,15H)-dione] | –
3 | 2.6 | 3.8 | 1.4 | 1.2 | 98 | 100 | 87 | 65 | 0 | 62 | 98 | 90 | 0.3 | 0.6 | 0 | Cc1cc2c([nH]1)/C=C1\C(=O)Nc3ccc(cc31)-c1cnn(C)c1OCCCN(C)C2=O [Ex. 166, [3a(4)Z]-9,14-dimethyl-9,10,11,12-tetrahydro-14H-1,17-(ethanediylidene)pyrazolo[4,3-n]dipyrrolo[3,2-g:3′,4′-j][1,5]oxazacyclopentadecine-3,8(2H,5H)-dione] | –
